{"source": "patent US20130217132A1", "about": "“METHODS, COMPOSITIONS AND USE FOR ENHANCING CHEMICAL TOLERANCE BY MICROORGANISMS” (priority 2009, published 2013)", "key": {"bacterial cultures": {"tested_on": "bacterial cultures", "conditions": "amino acid 10 mM, acetic acid 2.5 g/L, MOPS minimal medium, FIG. 4", "quoted_text": "In another exemplary method, amino acid supplementation of cultures was observed and illustrated by histogram plot. Overnight cultures were prepared from freezer stocks. Stationary phase overnight cultures were used for a 2.5% inoculation of 5 mL MOPS minimal medium plus carbenicillin. The OD600 was monitored until the culture reached an OD600=0.2. […] Amino acid supplementation was done by preparing stock solutions of amino acids and supplementing the media to a final concentration of 10 mM. Cultures were incubated at 37° C. and were shaken at 225 rpm. OD600 was monitored over the course of exponential growth and final measurements were taken after 24 hours. Specific growth rate was calculated by linear regression on the natural logarithm of the exponential phase OD600 over time."}, "E. coli": {"tested_on": "E. coli", "conditions": "cited from earlier work"}, "[1]": {"tested_on": "BW25113 ArecA cells transformed with the blank pBTL-1 vector", "type": "cell-based, E. coli", "conditions": "control cells", "method": "(§1) FIGS. 17A-17B represent methods of identification of a gene related to restoring tolerance. Multiple genome-wide SCALE selection was performed in the presence of ethanol, furfural and acetate respectively. The data set obtained for each compound was compared to the others. Alleles enriched in all cases were identified. […] To restore tolerance, overexpression of identified genes in bacterial cells was performed. For example, lpcA ORF was cloned into the pBTL-1 vector. BW25113 ArecA cells transformed with the blank pBTL-1 vector were used as a control. BW25113 ArecA cells overexpressing lpcA gene were referred to as pLPCA. Cells were inoculated at a standard cell density into MOPS minimal media, supplemented with furfural, acetate or ethanol. After 24 hours, growth of the cells was analyzed.\n(§2) The indicated cells were grown in MOPS minimal media supplemented with glucose as a carbon source. Furfural was added to the media at the concentration of 1 g/L. Arabinose was added at 10 mM where indicated to gauge effect of AraC binding. The BW25113 araC::FRT-kan clone corresponds to JW0063, a BW25113 araC knockout mutant ordered from the Keio Collection directly. pBTL-1 represented the blank vector, and pLPCA referred to lpcA gene overexpression. […] To analyze the LPS level in the cells indicated in FIG. 19, LPS are extracted from the cells grown to exponential phase. Loading of LPS for the protein gel is normalized to the cell number. The gel is stained to visualize LPS protein bands after desired separation is obtained.\n(§3) BW25113, MG1655, and derivatives were used where indicated. JW0063, an araC mutant of BW25113 was obtained from the Coli Genetic Stock Center (Yale). Overnight bacterial cultures were grown in Luria-Bertani medium with shaking. MOPS minimal medium (previously presented) with 0.2% glucose as a carbon source, was used for all seed cultures and growth studies. Seed cultures were inoculated at 2 v/v % from an overnight culture and were grown to mid-exponential phase. Growth cultures were inoculated with 10 v/v % seed cultures of an OD600 of 0.195-0.200 for an initial optical density of ˜0.02. Carbenicillin and kanamycin were used where appropriate at 100 μg/ml and 30 μg/ml, respectively. The pBTL-1 vector (previously described) was used as the control blank vector for all growth studies. Genome-wide furfural selection"}, "[2]": {"tested_on": "BW25113 ArecA cells overexpressing lpcA gene (pLPCA)", "type": "cell-based, E. coli", "conditions": "for OD600 at 24 hr: pLPCA cells", "method": "as §1, §2, §3"}, "E. coli LY01": {"tested_on": "E. coli LY01", "conditions": "starting pH of 6.0, acid at the IC50 obtained at a neutral pH; cited from earlier work"}, "pBTL-1 lpcA culture": {"tested_on": "pBTL-1 lpcA culture", "type": "cell-based, E. coli", "conditions": "for Specific Growth: n=3", "method": "(§4) Certain experiments described herein were performed in E. coli BW25113 recA-, with the kanamycin resistance gene removed.\n(§5) Cultures were grown in 10 ml MOPS minimal media, 100 μg carbenicillin/ml, and either 1 g furfural/1 supplemented, 2 g HMF/1, or 4 g acetate/1, in 15 ml conical tubes at 37° C. The optical density of 1 ml culture was measured with a spectrophotometer at 600 nm. A natural log transformation of the data was then calculated and then a regression line was fit to the data to calculate specific growth, which is […] to the culture doubling time. The blank vector, pBTL-1, served as the control. The lpcA gene was cloned into the pBTL-1 using standard cloning techniques and primers designed to amplify the gene from template DNA."}, "[3]": {"tested_on": "pBTL-1 Control (blank vector) culture", "experiment": "Aerobic growth (specific growth, final OD600) in MOPS minimal media with inhibitor, control", "type": "cell-based, E. coli", "conditions": "for Specific Growth: n=3", "method": "as §4, §5"}, "cell growth": {"tested_on": "cell growth", "conditions": "concentrations as low as, cited from earlier work"}, "membrane integrity": {"tested_on": "membrane integrity", "conditions": "cited from earlier work"}, "E. coli MC1022": {"tested_on": "E. coli MC1022", "conditions": "cited from earlier work"}, "[4]": {"conditions": "furfural vs. furfuryl alcohol; cited from earlier work"}, "[5]": {"conditions": "aerobic growth in 4 g/L acetate"}, "[6]": {"conditions": "aerobic growth in 2 g/L hydroxymethyl furfural"}}, "note": "Like-named read-outs stand apart in the source and are kept apart here."}
{"smiles": "CSCC[C@H](N)C(=O)O", "note": "[methionine]", "values": [{"measurement": "effect of amino acid supplementation on growth rate", "setting": "bacterial cultures", "result": "greatest increase in growth rate"}]}
{"smiles": "CC(=O)C=O", "note": "[Methylgloxal]", "values": [{"measurement": "concentration inhibiting E. coli growth and protein synthesis", "setting": "E. coli", "result": 0.07, "unit": "g/L"}]}
{"smiles": "CCO", "note": "[ethanol]", "values": [{"measurement": "OD600 at 24 hr", "setting": "[1]; 25 g/L of ethanol", "result": 0.4}, {"measurement": "improvement of final optical density by pLPCA in BW25113", "setting": "[2]; ethanol 25 g/l", "result": "37±3", "unit": "%"}, {"measurement": "OD600 at 24 hr", "setting": "[2]; 25 g/L of ethanol", "result": 1.0}]}
{"smiles": "CC(=O)CCC(=O)O", "note": "[levulinic acid]", "values": [{"measurement": "growth rate, percent that of control growth", "setting": "E. coli LY01", "result": 10, "unit": "%"}]}
{"smiles": "CC(=O)O", "note": "[acetate, acetic acid]", "values": [{"measurement": "growth rate, percent that of control growth", "setting": "E. coli LY01", "result": 0, "unit": "%"}, {"measurement": "OD600 at 24 hr", "setting": "[1]; 10 g/L of acetate", "result": 0.75}, {"measurement": "improvement of final optical density by pLPCA in BW25113", "setting": "[2]; acetate 5 g/l", "result": "47±4", "unit": "%"}, {"measurement": "OD600 at 24 hr", "setting": "[2]; 10 g/L of acetate", "result": 1.4}, {"measurement": "Final OD600 (24 hr)", "setting": "pBTL-1 lpcA culture; [5]", "result": 0.324}, {"measurement": "Specific Growth", "setting": "pBTL-1 lpcA culture; [5]", "result": 0.126, "unit": "h⁻¹"}, {"measurement": "Final OD600 (24 hr)", "setting": "[3]; [5]", "result": 0.111}, {"measurement": "Specific Growth", "setting": "[3]; [5]", "result": 0.067, "unit": "h⁻¹"}, {"measurement": "concentration that retards growth", "setting": "cell growth", "result": 0.5, "unit": "g/L"}, {"measurement": "acetate concentration shown to inhibit cell growth by 50%", "setting": "cell growth; minimal media", "result": 0.5, "unit": "g/L"}]}
{"smiles": "O=C(O)c1ccco1", "note": "[2-furoic acid]", "values": [{"measurement": "membrane leakage", "setting": "membrane integrity", "result": "significant membrane leakage"}]}
{"smiles": "O=Cc1ccc(CO)o1", "note": "[hydroxymethyl furfural, 5-(hydroxymethyl)-2-furaldehyde]", "values": [{"measurement": "Final OD600 (24 hr)", "setting": "pBTL-1 lpcA culture; [6]", "result": 1.014}, {"measurement": "Specific Growth", "setting": "pBTL-1 lpcA culture; [6]", "result": 0.234, "unit": "h⁻¹"}, {"measurement": "Final OD600 (24 hr)", "setting": "[3]; [6]", "result": 0.170}, {"measurement": "Specific Growth", "setting": "[3]; [6]", "result": 0.045, "unit": "h⁻¹"}]}
{"smiles": "COc1cc(C=O)ccc1O", "note": "[vanillin, 4-hydroxy-3-methoxybenzaldehyde]", "values": [{"measurement": "share of the population with membrane destabilization", "setting": "E. coli MC1022; treatment for one hour at over three times the minimum inhibitory concentration", "result": 29, "unit": "%"}, {"measurement": "share of the population with membrane destabilization", "setting": "E. coli MC1022; when grown overnight after treatment", "result": 13, "unit": "%"}]}
{"smiles": "OCc1ccco1", "note": "[furfuryl alcohol]", "values": [{"measurement": "membrane leakage", "setting": "membrane integrity", "result": "significant membrane leakage"}, {"measurement": "toxicity on a concentration basis", "setting": "[4]", "result": "~20", "unit": "g/L"}]}
{"smiles": "O=CO", "note": "[formic acid]", "values": [{"measurement": "growth rate, percent that of control growth", "setting": "E. coli LY01", "result": 35, "unit": "%"}]}
{"smiles": "N=C(N)NCCC[C@H](N)C(=O)O", "note": "[arginine]", "values": [{"measurement": "effect of amino acid supplementation on growth rate", "setting": "bacterial cultures", "result": "greatest increase in growth rate"}]}
